Results reported in paper PMC12655438, “Inhibitory Activity of Calcium and Sodium Ion Channels of Neurotoxic Protoplaythoa variabilis V-Shape Helical Peptide Analogs and Their Neuroprotective Effect In Vitro” (Pharmaceuticals, 2025).
“Also recorded” adds a separate entry of the source. Like-named read-outs stand apart in the source and are kept apart here. Where a SMILES comes first, the peptide text is derived from it. Bridges are numbered along the chain shown (N, C = ends).

What was measured:
[1] = test system: sodium inward current (INa) in bovine chromaffin cells; test: Sodium current (INa) block, whole-cell patch clamp in bovine chromaffin cells; type: cell-based; settings: for Block of INa: 10 ms pulses to 0 mV, holding -80 mV, 0 mM external Ca2+, pH 7.4, 22–24 °C, end of 3-min superfusion (legend: 1 min), mean ± SEM, n = 3–6 cells; for IC50: peak INa, fit to an exponential function, 1, 3, 10 μM, read-out: IC50 for sodium current blockade
[2] = test system: voltage-dependent potassium current (IKv) in bovine chromaffin cells; test: Voltage-dependent potassium current (IKv) block, whole-cell patch clamp in bovine chromaffin cells; type: cell-based; settings: for Block of IKv: 10 µM, 400 ms pulses to 100 mV, holding -80 mV, 2 mM Ca2+, 200 μM Cd2+, 22–24 °C, mean ± SEM, n = 3–4 cells
[3] = test system: voltage-dependent Ca^2+ channel (ICa) in bovine chromaffin cells; type: cell-based; settings: for Block of ICa: 50 ms pulses to 0 mV, holding -80 mV, 10 mM Ca2+, 5 μM TTX, pH 7.4, 22–24 °C, end of 1-min superfusion; for IC50: peak ICa, fit to an exponential function, 1, 3, 10 μM, read-out: IC50 for calcium current blockade
[4] = test system: intracellular calcium level ([Ca^2+]c) in bovine chromaffin cells; test: Intracellular calcium level with Fluo-4-AM in K+-stimulated bovine chromaffin cells; type: cell-based; settings: for Reduction of [Ca2+]c: Fluo-4, K+ stimulus (text 35 µM, legend 35 mM), room temperature, fluorescence 488/522 nm, mean ± SEM; for IC50: K+-stimulated, fit to an exponential function, 1, 3, 10 μM, read-out: IC50 for depression of the intracellular calcium increment; for Reduction of fluorescence compared with baseline: p ≤ 0.001
[5] = test system: human neuroblastoma (SH-SY5Y) cells; settings: for Cell viability: 24 h
[6] = test system: zebrafish larvae; settings: cited from earlier work; for LD50 in zebrafish larvae: concentration causing 50% of death
[7] = test system: 6-OHDA-induced neurotoxicity on zebrafish locomotor behavior; settings: ROS, dopaminergic neurons, ref [14], cited from earlier work
Excerpt: Previously, we investigated the synthetic versions of the linear PpVα and the folded PpVα analog, which contains an internal single disulfide bond, and the linear, chimeric PpVα. […] [17].

[8] = test system: voltage-gated sodium channels in vertebrates; settings: ref [14]; cited from earlier work
Excerpt: (§1) Previously, we investigated the synthetic versions of the linear PpVα and the folded PpVα analog, which contains an internal single disulfide bond, and the linear, chimeric PpVα.

[9] = test system: zebrafish model of epilepsy; settings: ref [14]; cited from earlier work
Excerpt: as §1

[10] = TFA salt, lyophilized powder, ref China Peptides (custom peptide service), cited from earlier work
[11] = test system: human neuroblastoma (SH-SY5Y) cells
[12] = test system: Cav channels (Cav2.2); settings: cited from earlier work
[13] = 1 μM, mean ± SEM, n = 3–5 cells (legend: 5–6)
[14] = 10 μM, mean ± SEM of 5–6 experiments
[15] = 3 μM, mean ± SEM of 5–6 experiments

| Compound | Block of INa ([1]; 3 μM) [%] | Block of INa ([1]; 10 μM) [%] | IC50 [1] [µM] | Block of IKv [2] [%] | Block of ICa [3, 13] [%] | Block of ICa [3, 14] [%] | IC50 [3] [µM] | Reduction of [Ca2+]c ([4]; 1 μM) [%] | Reduction of [Ca2+]c ([4]; 3 μM) [%] | Reduction of [Ca2+]c ([4]; 10 μM) [%] | IC50 [4] [µM] | Cell viability ([5]; 1 μM) [%] | Cell viability ([5]; 3 μM) [%] | Cell viability ([5]; 10 μM) [%] | also measured |
| --- | --- | --- | --- | --- | --- | --- | --- | --- | --- | --- | --- | --- | --- | --- | --- |
| CC[C@H](C)[C@H](NC(=O)[C@H](Cc1c[nH]c2ccccc12)NC(=O)[C@H](Cc1ccc(O)cc1)NC(=O)[C@@H](N)CCCCN)C(=O)N[C@@H](CC(C)C)C(=O)N[C@@H](CC(N)=O)C(=O)N[C@H](C(=O)N1CCC[C@H]1C(=O)N[C@@H](C)C(=O)N[C@@H](CO)C(=O)N[C@H](C(=O)N[C@H]1CSSC[C@@H](C(=O)N[C@@H](Cc2c[nH]c3ccccc23)C(=O)N[C@@H](CO)C(=O)N[C@@H](CCC(N)=O)C(=O)N[C@@H](CCSC)C(=O)N[C@@H](CC(C)C)C(=O)N[C@@H](CC(C)C)C(=O)N[C@@H](Cc2ccc(O)cc2)C(=O)N[C@@H](CCCCN)C(=O)N[C@@H](CCCCN)C(=O)N[C@@H](CO)C(N)=O)NC(=O)[C@H](Cc2ccc(O)cc2)NC(=O)[C@H](CCC(=O)O)NC(=O)[C@H](CC(=O)O)NC1=O)C(C)C)C(C)C [SSB] (H-KYWILNVPASVCDEYCWSQMLLYKKS-NH2; disulfide 12-16; N-terminus assumed) | 52.01 ± 11.02 | 73.76 ± 6.37 | 3.15 | 12.84 ± 4.19 | 10.10 ± 7.22 | 74.46 ± 5.00 | 9.68 | 28.1 ± 6.0 | 33.3 ± 7.9 | 42.7 ± 7.4 | 26 | 75 | 68 | 65 | Effect on voltage-dependent potassium current ([2]; up to 10 µM): no effect on IKv was observed; LD50 in zebrafish larvae ([6]; ref [14],[53]): 10.88 µM; Toxicity relative to the linear peptide ([6]; zebrafish model, ref [14]): less toxic than the linear peptide; Effect on 6-OHDA-induced neurotoxicity ([7]; listed as folded PpVα): reversing the 6-hydroxydopamine (6-OHDA)-induced neurotoxicity on zebrafish locomotor behavior; also recorded: preventing the 6-OHDA-induced excessive ROS generation and subsequent dopaminergic neuron loss; Effect on 6-OHDA-induced neurotoxicity ([7]; listed as folded peptide): more effective than the linear unfolded peptide in suppressing 6-OHDA-induced neurotoxicity on locomotor behavior in zebrafish; Effect on 6-OHDA-induced neurotoxicity ([7]; listed as folded-PpVα): prevented the 6-OHDA-induced excessive ROS generation and subsequent dopaminergic neuron loss; Block of voltage-gated sodium channels in vertebrates [8]: effective blockers of voltage-gated sodium channels in vertebrates; Antiepileptic and neuroprotective activities [9]: displayed antiepileptic and neuroprotective activities; Solubility ([10]; in 30%ACN/70%H2O): 1000 µg/mL |
| CC[C@H](C)[C@H](NC(=O)[C@H](CC(C)C)NC(=O)[C@H](CCC(=O)O)NC(=O)CN)C(=O)N[C@@H](CCCCN)C(=O)N[C@@H](CCSC)C(=O)N[C@@H](CCCCN)C(=O)N[C@@H](Cc1ccc(O)cc1)C(=O)N[C@@H](Cc1c[nH]c2ccccc12)C(=O)N[C@H](C(=O)N[C@@H](CC(C)C)C(=O)N[C@@H](CC(N)=O)C(=O)N[C@H](C(=O)N1CCC[C@H]1C(=O)N[C@@H](C)C(=O)N[C@@H](CO)C(=O)N[C@H](C(=O)N[C@@H](CS)C(=O)N[C@@H](CC(=O)O)C(=O)N[C@@H](CCC(=O)O)C(=O)N[C@@H](Cc1ccc(O)cc1)C(=O)N[C@@H](CS)C(=O)N[C@@H](Cc1c[nH]c2ccccc12)C(=O)N[C@@H](CO)C(=O)N[C@@H](CCC(N)=O)C(=O)N[C@@H](CCSC)C(=O)N[C@@H](CC(C)C)C(=O)N[C@@H](CC(C)C)C(=O)N[C@@H](Cc1ccc(O)cc1)C(=O)N[C@@H](CCCCN)C(=O)N[C@@H](CCCCN)C(=O)N[C@@H](CO)C(N)=O)C(C)C)C(C)C)[C@@H](C)CC [CHI] (H-GELIKMKYWILNVPASVCDEYCWSQMLLYKKS-NH2; N-terminus assumed) | 22.05 ± 3.61 | 75.57 ± 5.05 | 7.65 | 1.21 ± 2.42 | 10.74 ± 0.61 | 63.43 ± 4.76 | 8.88 | 33.2 ± 9.4 | 36.0 ± 8.2 | 65.0 ± 4.7 | 6.89 | 71 | 73 | 67 | Block of INa ([1]; 1 μM): 14.79 ± 2.16%; Effect on INa at low concentrations ([1]; 1 and 3 μM): no effect on INa; Block of ICa [3, 15]: 14.28 ± 2.08%; Reduction of fluorescence compared with baseline ([4]; 10 μM): more than 60%; Block of voltage-gated sodium channels in vertebrates [8]: effective blockers of voltage-gated sodium channels in vertebrates; Solubility ([10]; in 20%ACN/80%H2O): 1000 µg/mL |
| CC[C@H](C)[C@H](NC(=O)[C@H](Cc1c[nH]c2ccccc12)NC(=O)[C@H](Cc1ccc(O)cc1)NC(=O)[C@@H](N)CCCCN)C(=O)N[C@@H](CC(C)C)C(=O)N[C@@H](CC(N)=O)C(=O)N[C@H](C(=O)N1CCC[C@H]1C(=O)N[C@@H](C)C(=O)N[C@@H](CO)C(=O)N[C@H](C(=O)N[C@@H](CS)C(=O)N[C@@H](CC(=O)O)C(=O)N[C@@H](CCC(=O)O)C(=O)N[C@@H](Cc1ccc(O)cc1)C(=O)N[C@@H](CS)C(=O)N[C@@H](Cc1c[nH]c2ccccc12)C(=O)N[C@@H](CO)C(=O)N[C@@H](CCC(N)=O)C(=O)N[C@@H](CCSC)C(=O)N[C@@H](CC(C)C)C(=O)N[C@@H](CC(C)C)C(=O)N[C@@H](Cc1ccc(O)cc1)C(=O)N[C@@H](CCCCN)C(=O)N[C@@H](CCCCN)C(=O)N[C@@H](CO)C(N)=O)C(C)C)C(C)C [PPA] (H-KYWILNVPASVCDEYCWSQMLLYKKS-NH2; N-terminus assumed) | 28.92 ± 4.60 | 54.32 ± 8.29 | 9.08 | 14.04 ± 5.99 | 19.92 ± 5.32 | 52.86 ± 8.69 | 8.77 | 38.5 ± 7.1 | 38.7 ± 10.8 | 60.9 ± 6.1 | 6.95 | 77 | 71 | 60 | Block of INa ([1]; 1 μM): 14.80 ± 5.05%; Block of ICa [3, 15]: 38.50 ± 7.14%; Reduction of fluorescence compared with baseline ([4]; 10 μM): more than 60%; Neuroprotection against veratridine, in words ([11]; veratridine, 24 h): lower neuroprotection than SSB and CHI; Survival rate of zebrafish larvae ([6]; 1–30 µM, three different times, ref [14],[53]): decrease in survival rate to a minimum, for example, within 20 min at 3 µM peptide; LD50 in zebrafish larvae ([6]; ref [14],[53]): 21.23 µM; Solubility ([10]; in 30%ACN/70%H2O): 1000 µg/mL |
| COc1ccc2[nH]cc(CCNC(C)=O)c2c1 [melatonin, reference compound] | – | – | – | – | – | – | – | – | – | – | – | – | – | – | Reversion of cell damage ([5]; O/R (3 μM/4 μM) 24 h): approximately 80%; Cell viability with MLT ([5]; positive control against O/R, mean): 82% |
| COc1ccc(C(=O)O[C@H]2CC[C@@]3(C)[C@@H]4CC[C@H]5[C@]6(O)C[C@H](O)[C@@]7(O)[C@@H](CN8C[C@@H](C)CC[C@H]8[C@@]7(C)O)[C@]6(O)C[C@@]53O[C@]24O)cc1OC [veratridine] | – | – | – | – | – | – | – | – | – | – | – | – | – | – | Cell viability, inducer alone (VTD) ([11]; veratridine 24 h, no peptide, untreated control 100, mean): 49.21%; Mortality rate compared with untreated cells ([11]; veratridine, 24 h): 50% |
| ziconotide | – | – | – | – | – | – | – | – | – | – | – | – | – | – | Cav channel inhibition [12]: highly selective and potent inhibitor of Cav channels |
| NC1=N[C@H](O)[C@H]2[C@H]3O[C@]4(O)O[C@@H]([C@@H](O)[C@@]2(N1)[C@@H]4O)[C@]3(O)CO [tetrodotoxin] | – | – | – | – | – | – | – | – | – | – | – | – | – | – | Cell viability with TTX [11]: 85.41%; Neuroprotection against veratridine, in words [11]: almost wholly reverted the cellular damage |
